# In US20130072506A1, “6,8-DISUBSTITUTED PURINE COMPOSITIONS” (priority 2011, published 2013):
# How the values were obtained:
# [1] = tested on: mitochondria of ASF-2 cells; test: JC-1 staining of mitochondria; assay type: cell-based, human; conditions: 3 days pre-treatment of dermal fibroblasts
# Experimental: All cell culture experiments were performed on early and mid passage cultures (about 20 to 40% lifespan completed) of normal human skin fibroblast line, designated ASF-2. In order to check the effects of test compounds on senescent cells, late passage cells with more than 90% lifespan completed were used. ASF-2 cell line was established from a mammary skin biopsy obtained from a young, non-smoking and healthy […] at the time of breast reduction operation. Normal culture conditions of medium (DMEM) containing antibiotics, 10% foetal calf serum, and incubation at 37° C. with 95% humidity were used. The effects of the test compounds were determined using the following procedures.
# Briefly, stock solution of JC-1 (Sigma, M2128) was made at 1 mg/ml in dimethyl sulfoxide. Fresh staining solution […] was prepared by diluting the stock solution in warm (37° C.) culture medium supplemented with 10% calf serum (final conc. 1 μg/ml). Around 3000 cells/ml were seeded in 4 chambered flasks. After three days of incubation, medium is aspirated and one ml of JC-1 staining medium is added, after incubation for 10 mins a cover slip is quickly added and viewed under fluorescent microscope at excitation wavelengths of 488 and 647 nm. […] On depolarization, the orange red punctate staining is replaced by diffuse green monomer fluorescence.
# SKH-1 hairless mice [2] = test: Hairless mouse assay: skin histology and skin compartment measurements; assay type: in vivo; conditions: after 3 weeks of treatment
# Text: (§1) Experimental Design. 48 female SKH-1 hairless mice (5 weeks old, 20-25 grams, Charles River Laboratories, Wilmington, Mass.) are individually housed in filter-top cages, and acclimated for 5-7 days after delivery. The mice are divided into 8 treatment groups (n=6), including two different control groups (untreated control, vehicle control) and a therapeutic control (tretinoin 0.05% Renova™ cream). Cage cards are marked to indicate treatment groups 1-8. Water and mouse chow are provided ad libitum.
# (§2) Topical Treatments. Beginning on Treatment Day 1, test products are applied topically each morning (Monday through Friday) after erythema evaluations for 3 weeks. Using a positive displacement pipette, 20 mg of each agent is applied to a 2 cm×2 cm area of the center midline of the back. The material was spread across the treatment area with the pipette tip.
# Skin Histology. Skin biopsies are taken of each treatment site and untreated control skin. Biopsies are fixed in 4% neutral buffered formalin, embedded in paraffin, and stained with hematoxylin and eosin. The stained skin sections are examined to determine the effects of the treatment on epidermal, dermal, and stratum corneum histology. Biopsies are also microscopically examined for inflammatory cells.
# Skin Compartment Measurements. The H&E stained biopsy slides were imaged using a trinocular Olympus BH-2 microscope fitted with a Microfire 2.1×3 Digital Camera. 100× images were digitized and stored on CD using MS Pictureframe and Microfire Software. All compartment images were measured using a calibrated micrometer. An average of three measurements of each compartment for two slide images per biopsy was obtained and tabulated, and means and standard deviations were calculated.
# SKH-1 hairless mice [3] = test: Hairless mouse assay: skin moisture content; assay type: in vivo; conditions: course over 3 weeks of topical treatment
# Text: Evaluation of cutaneous effects of new topical compounds in the hirless mouse assay. The purpose of this study was to evaluate new topical compounds for their safety and efficacy as topical skin anti-aging treatments. The hairless mouse model is a well established model for studying the treatments of photoaging. […] The present study was used to investigate a new class of anti-aging compounds in comparison to classical ones. […] Topical compounds and vehicle controls were be applied daily (Monday-Friday) for 3 weeks to the dorsal skin of hairless mice. At baseline (prior to the 1st treatment), and weekly, the dorsal skin was measured for: transepidermal water loss (TEWL); skin moisture content; and skin elasticity.
# as §1
# Skin Moisture Content & Elasticity. The measurements of skin moisture content and skin elasticity are important noninvasive methods used to characterize the effects of moisturizers and anti-wrinkle effects on skin. A DermaLab™ combination instrument were used to measure the skin moisture content and elasticity of the target skin sites at baseline and at weekly intervals. This instrument is equipped with dual probes which are placed on the skin surface and a quantitative measurement taken of the respective parameters and the measurements recorded on an integrated computer. Mean measurements was determined for each treatment group over time, and comparative statistics used to evaluate product effectiveness.
# as §2
# [4] = clinical experience / previous clinical studies; cited from earlier work
# SKH-1 hairless mice [5] = test: Hairless mouse assay: epidermal bromodeoxyuridine (BrdU) staining; assay type: in vivo; conditions: after 3 weeks of topical treatment
# Text: This study determined the effect of topical compound formulations on epidermal cell proliferation using bromodeoxyuridine as an immunohistochemical marker of cell proliferation. Histological examination of the treated and control skin were used to determine cutaneous effects of the topical compounds. Topical tretinoin 0.05% (Renova™) was used as a therapeutic control.
# as §1, §2
# Bromodeoxyuridine Injection. All animal groups are injected with bromodeoxyuridine (100 mg/kg) I.P. 4 hours after the final application. Animals are sacrificed by CO2 inhalation 3 hours later followed by cervical dislocation. The test sites are excised, and 6 mm punch biopsies are obtained from each treatment site, and from untreated controls. Biopsies are placed into labeled vials containing 4% neutral buffered formalin for paraffin embedding and anti-BrdU staining.
# Bromodeoxyuridine Immunohistochemical Staining. Paraffin sections are cut to a […] thickness and stained using the BrdU Immuno-histochemistry kit (X1545K from Exalpha Biologicals, Inc.) and a standard staining protocol. The slides are weakly counterstained in Mayer's hematoxylin and scored under a light microscope for the number of BrdU-positive cells per mm of epidermis for each section. The data are expressed as mean BrdU-positive cells/mm for each treatment group. Differences in BrdU labeling in the treatment groups are statistically analyzed using the Students t-test. Representative photographs are taken of the histological sections of the BrdU-positive staining cells.
# SKH-1 hairless mice [6] = test: Hairless mouse assay: erythema scoring (skin irritation); assay type: in vivo; design: key: 0: No response; 1: Very slight redness; 2: Slight redness; 3: Moderate redness/irritation; 4: Severe redness/irritation; 5: Very severe redness/irritation; 6: Necrosis; conditions: topical, daily, 1 to 3 weeks
# Text: Evaluation of cutaneous effects of new topical compounds in the hirless mouse assay. The purpose of this study was to evaluate new topical compounds for their safety and efficacy as topical skin anti-aging treatments. The hairless mouse model is a well established model for studying the treatments of photoaging. This model has been used to study mechanisms, define effective treatment regimens and assess safety for retinoids and other anti-aging products. The present study was used to investigate a new class of anti-aging compounds in comparison to classical ones. Recent clinical studies have shown that this class of compounds improve the appearance of photodamaged skin and decrease transepidermal water loss (TEWL) without causing skin irritation. This study investigated the mechanisms of how these compounds affect the skin aging process and help to identify new compounds which are safe and effective for preventing and improving the clinical features of photoaged skin. Topical compounds and vehicle controls were be applied daily (Monday-Friday) for 3 weeks to the dorsal skin of hairless mice. At baseline (prior to the 1st treatment), and weekly, the dorsal skin was measured for: transepidermal water loss (TEWL); skin moisture content; and skin elasticity.
# Experimental Design. […]
# Technical staff recorded erythema scores for all animals each morning. […]
SMILES,JC-1 staining [1],skin compartment thickness (SKH-1 hairless mice [2]; H&E stained biopsies),histological evaluation of skin biopsies (SKH-1 hairless mice [2]),skin moisture content (skin conductance) (SKH-1 hairless mice [3]),TEWL [4],epidermal BrdU staining (SKH-1 hairless mice [5]),Erythema score (Grade) (SKH-1 hairless mice [6])
"CN[C@@H]1C[C@H]2O[C@@](C)([C@@H]1OC)n1c3ccccc3c3c4c(c5c6ccccc6n2c5c31)C(=O)NC4 [staurosporine, reference compound]",drastically reduced the uptake of JC-1 and J-aggregate formation,–,–,–,–,–,–
CC1=C(/C=C/C(C)=C/C=C/C(C)=C/C(=O)O)C(C)(C)CCC1 [tretinoin],–,increased both epidermal and dermal thickness,marked increased thickness of the epidermis and inflammatory changes in the dermis,significant decrease,increase in TEWL,no epidermal BrdU staining,3
